# Tests used:
# [1] = test system: wheat powdery mildew; assay: protectant activity in vivo against wheat powdery mildew; conditions: for pest or weed control at 400 µg/mL: read-out: control effect against wheat powdery mildew (%), 400 mg/L
# [2] = test system: corn rust; assay: protectant activity in vivo against corn rust; conditions: for pest or weed control at 400 µg/mL: read-out: control effect against corn rust (%), 400 mg/L
# [3] = test system: cucumber downy mildew; assay: protectant activity in vivo against cucumber downy mildew; conditions: Cucumis sativus, 168 h, protectant activity
# [4] = test system: carmine spider mite; assay: bioactivity test against carmine spider mite, airbrush spray; type: in vivo; conditions: for control against carmine spider mite: mortality after 72 hrs
# Outline: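 Broadbean seedlings infested with adult mites were sprayed with compound (acetone/methanol stock diluted in 0.1% Tween 80 water) by airbrush at 0.7 kg/cm^2, 0.5 ml. Three replicates were run. Mortality was scored after 72 hrs.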
# [5] = test system: armyworm; assay: bioactivity test against armyworm, airbrush spray; type: in vivo; conditions: for pest or weed control at 600 µg/mL: 600 mg/L; for control (test results against armyworm): mortality after 72 h
# [6] = test system: Diamond back moth; assay: insecticidal activity against diamond back moth, airbrush spray; type: in vivo; conditions: for pest or weed control at 600 µg/mL: 600 mg/L; for control (test results against diamond back moth): mortality after 72 hrs
# Outline: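 Airbrush leaf-disc spray test: both faces of 2 cm cabbage discs received 0.5 ml of test solution at 0.7 kg/cm^2. Solutions were made in acetone:methanol (1:1) and brought to concentration with 0.1% Tween 80 in water. Ten second-instar larvae per disc, triplicates, were held at 25° C and 60˜70% R.H., with mortality recorded at 72 hrs.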
# [7] = test system: Green peach aphids (Myzus Persicae Sulzer); assay: bioactivity test against green peach aphid, airbrush foliar spray; type: in vivo; conditions: for control (test results against green peach aphid): death rate after 48 hrs
# Outline: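 Aphids (15-30 per cabbage leaf disc) on moist filter paper were airbrush-sprayed at 10 psi, 0.5 mL, with compound from acetone:methanol (1:1) diluted in water with 0.1% tween 80. Held at 25±1 C, 60±5% RH; survivors counted after 48 hrs to give death rates.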
# [8] = test system: rice blast; assay: microbe, parasite or virus in culture; type: cell-based; conditions: Pyricularia oryzae; for inhibition at 25 ppm: read-out: inhibition rate against rice blast, 25 ppm, in vitro
# [9] = Triticum aestivum, 168 h, protectant activity
# [10] = Zea mays, 168 h, protectant activity
# [11] = Tetranychus cinnabarinus, 72 h, 600 mg/L, contrastive test, read-out: Insecticidal activity against carmine spider mite (% )
# [12] = 72 h, read-out: Insecticidal activity against armyworm (%)
# [13] = Myzus persicae, foliar, 48 h, 10 mg/L, contrastive test, read-out: Insecticidal activity against peach aphid (%)
# [14] = Myzus persicae, foliar, 48 h, 100 mg/L, contrastive test, read-out: Insecticidal activity against peach aphid (%)
# [15] = Myzus persicae, foliar, 48 h, 600 mg/L, contrastive test, read-out: Insecticidal activity against peach aphid (%)
smiles,measurement,setting,value
"Cc1ncnc(NCc2ccc(Oc3ncc(Cl)cc3Cl)cc2)c1Cl [CK37, reference compound]",pest or weed control at 400 µg/mL,[1]; [9],0%
same,pest or weed control at 400 µg/mL,[2]; [10],0%
same,pest or weed control at 25 µg/mL,"[3]; read-out: control effect against cucumber downy mildew (%), 25 mg/L",0%
same,pest or weed control at 50 µg/mL,"[3]; read-out: control effect against cucumber downy mildew (%), 50 mg/L",10%
same,pest or weed control at 100 µg/mL,"[3]; read-out: control effect against cucumber downy mildew (%), 100 mg/L",20%
same,pest or weed control at 400 µg/mL,"[3]; read-out: control effect against cucumber downy mildew (%), 400 mg/L",100%
same,pest or weed control at 600 µg/mL,[4]; [11],0%
same,pest or weed control at 600 µg/mL,[5]; [12],0%
same,pest or weed control at 600 µg/mL,[6]; 72 h,0%
same,pest or weed control at 10 µg/mL,[7]; [13],0%
same,pest or weed control at 100 µg/mL,[7]; [14],16%
same,pest or weed control at 600 µg/mL,[7]; [15],100%
same,inhibition at 25 ppm,[8],< 50%
CCc1ncnc(NCCc2ccc(Oc3ccc(C(F)(F)F)cn3)cc2)c1Cl [Compound I-6758],protectant activity against wheat powdery mildew in vivo,[1]; 100 ppm,100%
same,protectant activity against wheat powdery mildew in vivo,[1]; 400 ppm,100%
same,protectant activity against corn rust in vivo,[2]; 100 ppm,100%
same,protectant activity against corn rust in vivo,[2]; 400 ppm,100%
same,Insecticidal activity against carmine spider mite (% ),[4]; 2.5 mg/L,79%
same,Insecticidal activity against carmine spider mite (% ),[4]; 5 mg/L,82%
same,Insecticidal activity against carmine spider mite (% ),"[4]; 10 mg/L, contrastive test",99%
same,Insecticidal activity against carmine spider mite (% ),"[4]; 100 mg/L, contrastive test",100%
same,Insecticidal activity against carmine spider mite (% ),"[4]; 600 mg/L, contrastive test",100%
same,control against carmine spider mite,[4]; 100 ppm,100%
same,control against carmine spider mite,[4]; 600 ppm,100%
same,control (test results against armyworm),[5]; 100 ppm,100%
same,control (test results against armyworm),[5]; 600 ppm,100%
same,control (test results against diamond back moth),[6]; 100 ppm,100%
same,control (test results against diamond back moth),[6]; 600 ppm,100%
same,Insecticidal activity against peach aphid (%),"[7]; 1.25 mg/L, contrastive test",89%
same,Insecticidal activity against peach aphid (%),"[7]; 2.5 mg/L, contrastive test",100%
same,Insecticidal activity against peach aphid (%),"[7]; 5 mg/L, contrastive test",100%
same,Insecticidal activity against peach aphid (%),"[7]; 10 mg/L, contrastive test",100%
same,Insecticidal activity against peach aphid (%),"[7]; 100 mg/L, contrastive test",100%
same,Insecticidal activity against peach aphid (%),"[7]; 600 mg/L, contrastive test",100%
same,control (test results against green peach aphid),[7]; 2.5 ppm,100%
same,control (test results against green peach aphid),[7]; 5 ppm,100%
same,control (test results against green peach aphid),[7]; 10 ppm,100%
same,control (test results against green peach aphid),[7]; 100 ppm,100%
same,control (test results against green peach aphid),[7]; 600 ppm,100%
same,inhibition at 8.3 ppm,"[8]; read-out: inhibition rate against rice blast, 8.3 ppm, in vitro",80 to 99%
"CCC(Nc1ncnc(C)c1Cl)c1ccc(Oc2ccc(C(F)(F)F)cn2)cc1 (centres unmarked) [CK41, reference compound]",pest or weed control at 6.25 µg/mL,"[1]; Triticum aestivum, 168 h, read-out: control effect against wheat powdery mildew (%), 6.25 mg/L, protectant activity",0%
same,pest or weed control at 25 µg/mL,"[1]; Triticum aestivum, 168 h, read-out: control effect against wheat powdery mildew (%), 25 mg/L, protectant activity",50%
same,pest or weed control at 100 µg/mL,"[1]; Triticum aestivum, 168 h, read-out: control effect against wheat powdery mildew (%), 100 mg/L, protectant activity",70%
same,pest or weed control at 400 µg/mL,[1]; [9],100%
same,pest or weed control at 0.4 µg/mL,"[2]; Zea mays, 168 h, read-out: control effect against corn rust (%), 0.4 mg/L, protectant activity",0%
same,pest or weed control at 1.6 µg/mL,"[2]; Zea mays, 168 h, read-out: control effect against corn rust (%), 1.6 mg/L, protectant activity",20%
same,pest or weed control at 6.25 µg/mL,"[2]; Zea mays, 168 h, read-out: control effect against corn rust (%), 6.25 mg/L, protectant activity",80%
same,pest or weed control at 25 µg/mL,"[2]; Zea mays, 168 h, read-out: control effect against corn rust (%), 25 mg/L, protectant activity",90%
same,pest or weed control at 100 µg/mL,"[2]; Zea mays, 168 h, read-out: control effect against corn rust (%), 100 mg/L, protectant activity",100%
same,pest or weed control at 400 µg/mL,[2]; [10],100%
same,pest or weed control at 10 µg/mL,"[4]; Tetranychus cinnabarinus, 72 h, 10 mg/L, contrastive test, read-out: Insecticidal activity against carmine spider mite (% )",0%
same,pest or weed control at 100 µg/mL,"[4]; Tetranychus cinnabarinus, 72 h, 100 mg/L, contrastive test, read-out: Insecticidal activity against carmine spider mite (% )",99%
same,pest or weed control at 600 µg/mL,[4]; [11],100%
same,pest or weed control at 10 µg/mL,"[5]; 72 h, 10 mg/L, read-out: Insecticidal activity against armyworm (%)",0%
same,pest or weed control at 100 µg/mL,"[5]; 72 h, 100 mg/L, read-out: Insecticidal activity against armyworm (%)",0%
same,pest or weed control at 600 µg/mL,[5]; [12],100%
same,pest or weed control at 10 µg/mL,"[6]; 72 h, 10 mg/L",0%
same,pest or weed control at 100 µg/mL,"[6]; 72 h, 100 mg/L",53%
same,pest or weed control at 600 µg/mL,[6]; 72 h,86%
same,pest or weed control at 2.5 µg/mL,"[7]; Myzus persicae, foliar, 48 h, 2.5 mg/L, contrastive test, read-out: Insecticidal activity against peach aphid (%)",0%
same,pest or weed control at 5 µg/mL,"[7]; Myzus persicae, foliar, 48 h, 5 mg/L, contrastive test, read-out: Insecticidal activity against peach aphid (%)",15%
same,pest or weed control at 10 µg/mL,[7]; [13],23%
same,pest or weed control at 100 µg/mL,[7]; [14],97%
same,pest or weed control at 600 µg/mL,[7]; [15],100%
same,inhibition at 25 ppm,[8],< 50%

# Reference: patent US9770026B2, “Substituted pyrimidine compound and uses thereof” (Shenyang Sinochem Agrochemicals R&D Co., Ltd., priority 2012, dated 2017)
